The values that follow come from patent publication US7595401B2, “Therapeutic compounds and their use in cancer” (Myriad Pharmaceuticals, Inc., priority 2006, dated 2009).

One assay relates to purified human Hsp90. Put plainly: Binding Assay: fluorescence polarization with BODIPY-labeled geldanamycin. The following applies: 5 μM compound, BODIPY-GM 10 nM, Hsp90 30 nM. In a few lines:
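Compounds in 2% DMSO final compete with 10 nM BODIPY-GM for 30 nM purified human Hsp90, incubated overnight at room temperature in pH 7.3 HEPES buffer containing Na2MoO4 and DTT. Polarization (mP, ex/em 485/530) normalized to DMSO gives percent inhibition; autofluorescence-confounded data excluded.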
In general terms: In fluorescence polarisation assays a small probe gives low polarisation when free and higher when bound to something large.
`Nc1ncn(CCC2CCCN(S(=O)(=O)C(F)(F)F)C2)c2nc(Sc3cc4c(cc3Br)OCO4)nc1-2` (stereo not drawn) [Example 403, 8-[(6-Bromo-1,3-benzodioxol-5-yl)thio]-3-(2-{1-[(trifluoromethyl)sulfonyl]piperidin-3-yl}ethyl)-3H-purin-6-amine]: the % Inhibition (usually the relative decrease from the control value, in per cent) at 5 μM Compound Concentration is on record as 14%.

In the case of `Nc1ncn(CCC2CCN(C(=O)OCc3ccccc3)CC2)c2nc(Sc3cc4c(cc3Br)OCO4)nc1-2` [Example 410, Benzyl 4-(2-{6-amino-8-[(6-bromo-1,3-benzodioxol-5-yl)thio]-3H-purin-3-yl}ethyl)piperidine-1-carboxylate], the “% Inhibition at 5 μM Compound Concentration” value (“% Inhibition” for short) is recorded as 11%. Regarding `CC(C)(C)OC(=O)N1CCCC1CCn1cnc(N)c2nc(Sc3cc4c(cc3Br)OCO4)nc1-2` (stereo not drawn) [Example 412, tert-Butyl 2-(2-{6-amino-8-[(6-bromo-1,3-benzodioxol-5-yl)thio]-3H-purin-3-yl}ethyl)pyrrolidine-1-carboxylate], the “% Inhibition” value was determined as 0%.

For `CC(C)(C)OC(=O)N1CCC(CCn2cnc(N)c3nc(Sc4cc5c(cc4Br)OCO5)nc2-3)C1` (stereo not drawn) [Example 413, tert-Butyl 3-(2-{6-amino-8-[(6-bromo-1,3-benzodioxol-5-yl)thio]-3H-purin-3-yl}ethyl)pyrrolidine-1-carboxylate], the “% Inhibition” value is listed as 28%. With `CC(C)(C)OC(=O)N1CCCC[C@H]1CCn1cnc(N)c2nc(Sc3cc4c(cc3Br)OCO4)nc1-2` [Example 417, tert-Butyl (2S)-2-(2-{6-amino-8-[(6-bromo-1,3-benzodioxol-5-yl)thio]-3H-purin-3-yl}ethyl)piperidine-1-carboxylate], the “% Inhibition” value came out at 0%.

For `CC(C)(C)OC(=O)N1CC[C@H](CCn2cnc(N)c3nc(Sc4cc5c(cc4Br)OCO5)nc2-3)C1` [Example 420, tert-Butyl (3S)-3-(2-{6-amino-8-[(6-bromo-1,3-benzodioxol-5-yl)thio]-3 H-purin-3-yl}ethyl)pyrrolidine-1-carboxylate], the “% Inhibition” value was found to be 7%. In the case of `Nc1ncn(CCC2CCCN2C(=O)OCc2ccccc2)c2nc(Sc3cc4c(cc3Br)OCO4)nc1-2` (stereo not drawn) [Example 421, Benzyl 2-(2-{6-amino-8-[(6-bromo-1,3-benzodioxol-5-yl)thio]-3H-purin-3-yl}ethyl)pyrrolidine-1-carboxylate], the “% Inhibition” value stood at 28%.

Turning to `Nc1ncn(CCC2=CCN(Cc3ccccc3)CC2)c2nc(Sc3cc4c(cc3Br)OCO4)nc1-2` [Example 425, 3-[2-(1-Benzyl-1,2,3,6-tetrahydropyridin-4-yl)ethyl]-8-[(6-bromo-1,3-benzodioxol-5-yl)thio]-3H-purin-6-amine], the “% Inhibition” value came to 6%. With `CN1C2CCC1CC(CCn1cnc(N)c3nc(Sc4cc5c(cc4Br)OCO5)nc1-3)C2` (stereo not drawn) [Example 427, 8-[(6-Bromo-1,3-benzodioxol-5-yl)thio]-3-{2-[(3-endo)-8-methyl-8-azabicyclo[3.2.1]oct-3-yl]ethyl}-3H-purin-6-amine], the “% Inhibition” value was 32%.

On to `CC(C)NC(=O)N1CCC(CCn2cnc(N)c3nc(Sc4cc5c(cc4Br)OCO5)nc2-3)CC1` [Example 439, 4-(2-{6-Amino-8-[(6-bromo-1,3-benzodioxol-5-yl)thio]-3H-purin-3-yl}ethyl)-N-isopropylpiperidine-1-carboxamide], for which the “% Inhibition” value amounted to 24%. `CCNC(=O)N1CCCC(CCn2cnc(N)c3nc(Sc4cc5c(cc4Br)OCO5)nc2-3)C1` (stereo not drawn) [Example 440, 3-(2-{6-Amino-8-[(6-bromo-1,3-benzodioxol-5-yl)thio]-3H-purin-3-yl}ethyl)-N-ethylpiperidine-1-carboxamide]: the “% Inhibition” value amounted to 60%. Turning to `CC(C)NC(=O)N1CCCC(CCn2cnc(N)c3nc(Sc4cc5c(cc4Br)OCO5)nc2-3)C1` (stereo not drawn) [Example 441, 3-(2-{6-Amino-8-[(6-bromo-1,3-benzodioxol-5-yl)thio]-3H-purin-3-yl}ethyl)-N-isopropylpiperidine-1-carboxamide], the “% Inhibition” value turned out to be 45%.

The same assay, now with this note: BODIPY-GM 10 nM, Hsp90 30 nM.
As for `Nc1ncnc2c1nc(Sc1cc3c(cc1Br)OCO3)n2CCC1CCCN(S(=O)(=O)C(F)(F)F)C1` (stereo not drawn) [Example 402, 8-[(6-Bromo-1,3-benzodioxol-5-yl)thio]-9-(2-{1-[(trifluoromethyl)sulfonyl]piperidin 3-yl}ethyl)-9H-purin-6-amine], the IC50 (in general, the midpoint of a concentration-inhibition curve) came out at 590 nM. With `COc1ccc(OC)c(Sc2nc3c(N)ncnc3n2CCC2=CC3CC(C2)C3(C)C)c1` (stereo not drawn) [Example 405, 8-[(2,5-Dimethoxyphenyl)thio]-9-[2-(6,6-dimethylbicyclo[3.1.1]hept-2-en-3-yl)ethyl]-9H-purin-6-amine], the IC50 was over 8000 nM. The compound `CC1=NNC(=O)C1CCn1c(Sc2cc3c(cc2Br)OCO3)nc2c(N)ncnc21` (stereo not drawn) [Example 406, 4-(2-{6-Amino-8-[(6-bromo-1,3-benzodioxol-5-yl)thio]-9H-purin-9-yl}ethyl)-5-methyl-2,4-dihydro-3H-pyrazol-3-one] returned an IC50 of over 25000 nM.

On to `COc1ccc(OC)c(Sc2nc3c(N)ncnc3n2CCC2C(=O)NN=C2C)c1` (stereo not drawn) [Example 407, 4-(2-{6-Amino-8-[(2,5-dimethoxyphenyl)thio]-9H-purin-9-yl}ethyl)-5-methyl-2,4-dihydro-3H-pyrazol-3-one], for which the IC50 is over 25000 nM.

`Nc1ncnc2c1nc(Sc1cc3c(cc1Br)OCO3)n2CCC1CCN(C(=O)OCc2ccccc2)CC1` [Example 409, Benzyl 4-(2-{6-amino-8-[(6-bromo-1,3-benzodioxol-5-yl)thio]-9H-purin-9-yl}ethyl)piperidine-1-carboxylate] showed an IC50 of 130 nM. Turning to `CC(C)(C)OC(=O)N1CCCC1CCn1c(Sc2cc3c(cc2Br)OCO3)nc2c(N)ncnc21` (stereo not drawn) [Example 414, tert-Butyl 2-(2-{6-amino-8-[(6-bromo-1,3-benzodioxol-5-yl)thio]-9H-purin-9-yl}ethyl)pyrrolidine-1-carboxylate], the IC50 is 540 nM.

Compound `CC(C)(C)OC(=O)N1CCC(CCn2c(Sc3cc4c(cc3Br)OCO4)nc3c(N)ncnc32)C1` (stereo not drawn) [Example 415, tert-Butyl 3-(2-{6-amino-8-[(6-bromo-1,3-benzodioxol-5-yl)thio]-9H-purin-9-yl}ethyl)pyrrolidine-1-carboxylate] returned an IC50 of 460 nM. `CC(C)(C)OC(=O)N1CCCC[C@H]1CCn1c(Sc2cc3c(cc2Br)OCO3)nc2c(N)ncnc21` [Example 416, tert-Butyl (2S)-2-(2-{6-amino-8-[(6-bromo-1,3-benzodioxol-5-yl)thio]-9H-purin-9-yl}ethyl)piperidine-1-carboxylate] registered an IC50 of 200 nM.

With `CC(C)(C)OC(=O)N1CC[C@H](CCn2c(Sc3cc4c(cc3Br)OCO4)nc3c(N)ncnc32)C1` [Example 418, tert-Butyl (3R)-3-(2-{6-amino-8-[(6-bromo-1,3-benzodioxol-5-yl)thio]-9H-purin-9-yl}ethyl)pyrrolidine-1-carboxylate], the IC50 stood at 300 nM. The same measure, in the same setting: for `Nc1ncnc2c1nc(Sc1cc3c(cc1Br)OCO3)n2CCC1CCCN1C(=O)OCc1ccccc1` (stereo not drawn) [Example 419, Benzyl 2-(2-{6-amino-8-[(6-bromo-1,3-benzodioxol-5-yl)thio]-9H-purin-9-yl}ethyl)pyrrolidine-1-carboxylate] the value was 2900 nM. Still for that read-out and setting: for `CN1[C@@H]2CC[C@H]1C[C@@H](CCn1c(Sc3cc4c(cc3Br)OCO4)nc3c(N)ncnc31)C2` [Example 426, 8-[(6-Bromo-1,3-benzodioxol-5-yl)thio]-9-{2-[(3-endo)-8-methyl-8-azabicyclo[3.2.1]oct-3-yl]ethyl}-9H-purin-6-amine] the value was 150 nM; for `CCNC(=O)N1CCC(CCn2c(Sc3cc4c(cc3Br)OCO4)nc3c(N)ncnc32)CC1` [Example 431, 4-(2-{6-Amino-8-[(6-bromo-1,3-benzodioxol-5-yl)thio]-9H-purin-9-yl}ethyl)-N-ethylpiperidine-1-carboxamide], 130 nM. Still for that read-out and setting: for `CC(C)NC(=O)N1CCC(CCn2c(Sc3cc4c(cc3Br)OCO4)nc3c(N)ncnc32)CC1` [Example 432, 4-(2-{6-Amino-8-[(6-bromo-1,3-benzodioxol-5-yl)thio]-9H-purin-9-yl}ethyl)-N-isopropylpiperidine-1-carboxamide] the value was 65 nM; for `CC(C)(C)NC(=O)N1CCC(CCn2c(Sc3cc4c(cc3Br)OCO4)nc3c(N)ncnc32)CC1` [Example 433, 4-(2-{6-Amino-8-[(6-bromo-1,3-benzodioxol-5-yl)thio]-9H-purin-9-yl}ethyl)-N-(tert-butyl)piperidine-1-carboxamide], 125 nM.

In turn, `CCOC(=O)CNC(=O)N1CCC(CCn2c(Sc3cc4c(cc3Br)OCO4)nc3c(N)ncnc32)CC1` [Example 434, Ethyl N-{[4-(2-{6-amino-8-[(6-bromo-1,3-benzodioxol-5-yl)thio]-9H-purin-9-yl}ethyl)piperidin-1-yl]carbonyl}glycinate] had an IC50 of 37 nM. As to `CCNC(=O)N1CCCC(CCn2c(Sc3cc4c(cc3Br)OCO4)nc3c(N)ncnc32)C1` (stereo not drawn) [Example 435, 3-(2-{6-Amino-8-[(6-bromo-1,3-benzodioxol-5-yl)thio]-9H-purin-9-yl}ethyl)-N-ethylpiperidine-1-carboxamide], the IC50 is 195 nM. `CC(C)NC(=O)N1CCCC(CCn2c(Sc3cc4c(cc3Br)OCO4)nc3c(N)ncnc32)C1` (stereo not drawn) [Example 436, 3-(2-{6-Amino-8-[(6-bromo-1,3-benzodioxol-5-yl)thio]-9H-purin-9-yl}ethyl)-N-isopropylpiperidine-1-carboxamide]: the IC50 was found to be 390 nM. Same read-out and setting: for `CC(C)(C)NC(=O)N1CCCC(CCn2c(Sc3cc4c(cc3Br)OCO4)nc3c(N)ncnc32)C1` (stereo not drawn) [Example 437, 3-(2-{6-Amino-8-[(6-bromo-1,3-benzodioxol-5-yl)thio]-9H-purin-9-yl}ethyl)-N-(tert-butyl)piperidine-1-carboxamide] the value was 390 nM.
